The record followed here is patent publication US11731943B2, “Therapeutic compounds, compositions and methods of use thereof” (priority 2016, dated 2023).

Broadly, the pIC50 is the negative decadic logarithm of the IC50, by convention in mol/L. Broadly, the pKi is the Ki on a negative log10 scale, so that one unit is a factor of ten.

Molecules are shown by their SMILES. pIC50, pKi: −log10 of the molar value. Like-named read-outs stand apart in the source and are kept apart here.

Assay [1] concerns JAK1-dependent STAT6 phosphorylation downstream of IL-13 stimulation in BEAS-2B human bronchial epithelial cells. The assay can be described thus: JAK1 pathway assay in BEAS-2B cells (IL-13-pSTAT6, MSD). Type of assay: cell-based. The procedure:
JAK1 Pathway Assay in Cell Lines was carried out as follows:
Inhibitor potency (EC50) was determined in cell-based assays designed to measure JAK1 dependent STAT phosphorylation.
In one assay approach, TF-1 human erythroleukemia cells obtained from the American Type Culture Collection (ATCC; Manassas, Va.) were used to measure JAK1-dependent STAT6 phosphorylation downstream of IL-13 stimulation. Prior to use in the assays, TF-1 cells were starved of GM-CSF overnight in OptiMEM medium (Life Technologies, Grand Island, N.Y.) supplemented with 0.5% charcoal/dextran stripped fetal bovine serum (FBS), 0.1 mM non-essential amino acids (NEAA), and 1 mM sodium pyruvate. The assays were run in 384-well plates in serum-free OptiMEM medium using 300,000 cells per well. In a second assay approach, BEAS-2B human bronchial epithelial cells obtained from ATCC were plated at 100,000 cells per well of a 96-well plate one day prior to the experiment. The BEAS-2B assay was run in complete growth medium (bronchial epithelial basal medium plus bulletkit; Lonza; Basel, Switzerland).
Test compounds were serially diluted 1:2 in DMSO and then diluted 1:50 in medium just before use. Diluted compounds were added to the cells, for a final DMSO concentration of 0.2%, and incubated for 30 min (for the TF-1 assay) or 1 hr (for the BEAS-2B assay) at 37° C. Then, cells were stimulated with human recombinant cytokine at their respective EC90 concentrations, as previously determined for each individual lot. Cells were stimulated with IL-13 (R&D Systems, Minneapolis, Minn.) for 15 min at 37° C. The TF-1 cell reactions were stopped by the direct addition of 10× lysis buffer (Cell Signaling Technologies, Danvers, Mass.), whereas the BEAS-2B cell incubations were halted by the removal of medium and addition of 1× lysis buffer. The resultant samples were frozen in the plates at −80° C. Compound mediated inhibition of STATE phosphorylation was measured in the cell lysates using MesoScale Discovery (MSD) technology (Gaithersburg, Md.).

In assay [2] the target is isolated recombinant JAK1 kinase domain (Homo sapiens (Human), UniProt P23458). As to the kind of experiment: JAK1 enzyme assay (Caliper LabChip, Ki). The format is biochemical. The procedure, abridged: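 Recombinant human JAK1 kinase domain phosphorylating an N-terminally 5-carboxyfluorescein-labelled JAK3-derived peptide, 30 min at 22 °C, stopped with EDTA (50 mM final). Phosphorylated fraction of total peptide read by Caliper LabChip mobility shift; Ki from Morrison tight-binding fit corrected for ATP competition (Ki=Ki,app/(1+[ATP]/Km,app)).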
Chain of isolated recombinant JAK1 kinase domain (P23458 875-1153): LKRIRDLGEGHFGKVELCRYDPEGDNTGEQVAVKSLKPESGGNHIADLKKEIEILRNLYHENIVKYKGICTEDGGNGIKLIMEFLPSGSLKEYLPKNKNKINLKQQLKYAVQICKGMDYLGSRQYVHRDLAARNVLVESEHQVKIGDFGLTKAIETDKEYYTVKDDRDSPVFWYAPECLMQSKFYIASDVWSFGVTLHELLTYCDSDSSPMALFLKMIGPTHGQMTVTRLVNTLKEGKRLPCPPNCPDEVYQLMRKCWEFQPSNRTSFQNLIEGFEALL

Assay [3] concerns the target isolated recombinant JAK2 kinase domain (Homo sapiens (Human), UniProt O60674). As to the kind of experiment: JAK2 enzyme assay (Caliper LabChip, Ki). The format is biochemical. Put shortly:
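Recombinant human JAK1 or JAK2 kinase domain phosphorylating a 5-carboxyfluorescein-labelled JAK3-derived peptide; 30 min at 22 °C, stopped with EDTA (50 mM final). Phosphorylated product measured as a fraction of total peptide by Caliper LabChip mobility shift.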

Where [4] appears, read: Homo sapiens, BEAS-2B, BEAS-2B cells, IL-13 stimulation, read-out: IL-13 p-STAT6 BEAS-2B IC50.
Setting [5] is: BEAS-2B cells, IL-13 stimulation, read-out: IL-13 p-STAT6 BEAS-2B IC50.

Chain of isolated recombinant JAK2 kinase domain (O60674 849-1124): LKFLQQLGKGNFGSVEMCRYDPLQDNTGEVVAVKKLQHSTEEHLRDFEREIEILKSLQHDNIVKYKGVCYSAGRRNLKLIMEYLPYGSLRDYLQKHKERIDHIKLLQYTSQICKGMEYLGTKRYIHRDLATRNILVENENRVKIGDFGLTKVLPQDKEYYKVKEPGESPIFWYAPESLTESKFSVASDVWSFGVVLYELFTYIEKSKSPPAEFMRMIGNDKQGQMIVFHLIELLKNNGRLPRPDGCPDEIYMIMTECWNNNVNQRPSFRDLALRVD

In the case of `COC(=O)Nc1nn(C2(CC#N)CCN(Cc3ccc(-c4ncco4)cc3)CC2F)cc1C(N)=O` (stereo not drawn) [Example 278, methyl N-[4-carbamoyl-1-[4-(cyanomethyl)-3-fluoro-1-[(4-oxazol-2-ylphenyl)methyl]-4-piperidyl]pyrazol-3-yl]carbamate], the pIC50 in assay [1] (setting [4]) was 7.35. Further, the pKi is 8.96 in assay [2] (read-out: JAK1 Ki) and 8.89 in assay [3].

On to `N#CCC1(n2cc(C(N)=O)c(NC(=O)C3CC3)n2)CCN(Cc2ccccc2Cl)CC1` [Example 58], for which the pIC50 in assay [1] (setting [4]) is 6.54. Besides, the pKi in assay [2] (read-out: JAK1 Ki) was 8.36; in assay [3] it was 7.37.

On to `N#CC[C@]1(n2cc(C(N)=O)c(NC(=O)C3CC3)n2)CC[C@H](NCC(F)(F)F)CC1` (single isomer, unassigned) [Example 2], for which the pIC50 in assay [1] (setting [4]) was 6.43. Further, the results for the pKi in assay [2] and in assay [3] were 8.92 and 8.21, respectively.

Regarding `N#CC[C@]1(n2cc(C(N)=O)c(NC(=O)C3CC3)n2)CCN(Cc2ccc(-c3ccccc3)cc2)C[C@@H]1F` (single isomer, unassigned) [Example 12], the pIC50 in assay [1] (setting [4]) was 6.99. Besides, the figures for the pKi in assay [2] (read-out: JAK1 Ki) and in assay [3] were 8.89 and 8.17, respectively.

In the case of `CCn1ccc(-c2ccc(CN3CCC(CC#N)(n4cc(C(N)=O)c(NC(=O)OC)n4)C(F)C3)c(F)c2)n1` (stereo not drawn) [Example 241, methyl N-[4-carbamoyl-1-[4-(cyanomethyl)-1-[[4-(1-ethylpyrazol-3-yl)-2-fluoro-phenyl]methyl]-3-fluoro-4-piperidyl]pyrazol-3-yl]carbamate], the negative logarithm of the IC50 (pIC50) in assay [1] (setting [4]) is 7.54. Besides, the pKi in assay [2] (read-out: JAK1 Ki) was 9.27; in assay [3] it was 9.29.

Take `N#CCC1(n2cc(C(N)=O)c(NC(=O)C3CC3)n2)CCC(Oc2ccc(-c3ccccc3)cc2)CC1` (single isomer, unassigned) [Example 211, 1-(4-([1,1′-Biphenyl]-4-yloxy)-1-(cyanomethyl)cyclohexyl)-3-(cyclopropanecarboxamido)-1H-pyrazole-4-carboxamide]: the pIC50 in assay [1] (setting [5]) is 7.59. The pKi in assay [2] (read-out: JAK1 Ki) is 9.13; in assay [3], 8.34.

Turning to `N#CCC1(n2cc(C(N)=O)c(NC(=O)C3CC3)n2)CCN(Cc2ccc(C3CCCCC3)cc2)CC1F` (stereo not drawn) [Example 271, 1-[4-(cyanomethyl)-1-[(4-cyclohexylphenyl)methyl]-3-fluoro-4-piperidyl]-3-(cyclopropanecarbonylamino) pyrazole-4-carboxamide], the pIC50 in assay [1] (setting [4]) was 7.08. Further, the pKi was 8.59 in assay [2] (read-out: JAK1 Ki) and 7.82 in assay [3].

Take `N#CCC1(n2cc(C(N)=O)c(NC(=O)C3CC3)n2)CCN(Cc2ccc(-n3nccn3)c(O)c2)CC1` [Example 277, 1-[4-(cyanomethyl)-1-[[3-hydroxy-4-(triazol-2-yl)phenyl]methyl]-4-piperidyl]-3-(cyclopropanecarbonylamino) pyrazole-4-carboxamide]: in assay [1] (setting [4]), the pIC50 is 7.40. In addition, the pKi was 9.13 in assay [2] (read-out: JAK1 Ki) and 8.72 in assay [3].

In the case of `CCc1ccc(-c2ccc(CN3CCC(CC#N)(n4cc(C(N)=O)c(NC(=O)C5CC5C#N)n4)C(F)C3)cc2O)cc1` (stereo not drawn) [Example 222, 3-[(2-cyanocyclopropanecarbonyl)amino]-1-[4-(cyanomethyl)-1-[[4-(4-ethylphenyl)-3-hydroxy-phenyl]methyl]-3-fluoro-4-piperidyl]pyrazole-4-carboxamide], the pIC50 in assay [1] (setting [5]) is 7.28. Also, the figures for the pKi in assay [2] (read-out: JAK1 Ki) and in assay [3] were 9.74 and 9.37, respectively.

With `N#CC[C@]1(n2cc(C(N)=O)c(NC(=O)C3CC3)n2)CC[C@@H](N2CC(F)(F)C2)CC1` [Example 178, 1-[1-(cyanomethyl)-4-(3,3-difluoroazetidin-1-yl)cyclohexyl]-3-(cyclopropanecarbonylamino) pyrazole-4-carboxamide], the pIC50 in assay [1] (Homo sapiens, BEAS-2B, read-out: IL-13 p-STAT6 BEAS-2B IC50, BEAS-2B cells, IL-13 stimulation) was 6.78. Besides, the negative logarithm of the Ki (pKi) in assay [2] was 8.33; in assay [3], 7.74.

Consider `N#CCC1(n2cc(C(N)=O)c(NC(=O)C3CC3)n2)CCN(Cc2ccccc2C#N)CC1` [Example 64], for which the pIC50 in assay [1] (setting [4]) was < 6.00. Also, the values for the pKi in assay [2] (read-out: JAK1 Ki) and in assay [3] were 8.14 and 7.08, respectively.

As to `CCc1ccc(-c2ccc(CN3CCC(CC#N)(n4cc(C(N)=O)c(NC(=O)C5CC5)n4)CC3)cc2)cc1` [Example 155, 1-[4-(cyanomethyl)-1-[[4-(4-ethylphenyl)phenyl]methyl]-4-piperidyl]-3-(cyclopropanecarbonylamino) pyrazole-4-carboxamide], the pIC50 in assay [1] (setting [4]) is 7.22. Moreover, the negative logarithm of the Ki (pKi) was 9.22 in assay [2] (read-out: JAK1 Ki) and 8.14 in assay [3].

For the compound `N#CCC1(n2cc(C(N)=O)c(NC(=O)C3CC3)n2)CCN(C(=O)CCC(F)(F)F)CC1` [Example 169, 1-[4-(cyanomethyl)-1-(4,4,4-trifluorobutanoyl)-4-piperidyl]-3-(cyclopropanecarbonylamino) pyrazole-4-carboxamide], the pIC50 in assay [1] (setting [4]) was < 6.00. Moreover, the pKi was 8.43 in assay [2] (read-out: JAK1 Ki) and 7.32 in assay [3].

For `N#CCC1(n2cc(C(N)=O)c(NC(=O)C3CC3)n2)CCN(Cc2cc(O)c(-c3ccccc3)cc2F)CC1` [Example 191, 1-[4-(cyanomethyl)-1-[(2-fluoro-5-hydroxy-4-phenyl-phenyl)methyl]-4-piperidyl]-3-(cyclopropanecarbonylamino) pyrazole-4-carboxamide], the pIC50 in assay [1] (setting [4]) was 7.09. Besides, the pKi is 9.70 in assay [2] (read-out: JAK1 Ki) and 9.49 in assay [3].

As for `N#CCC1(n2cc(C(N)=O)c(NC(=O)C3CC3)n2)CCN(Cc2ccccc2F)CC1` [Example 184, 1-[4-(cyanomethyl)-1-[(2-fluorophenyl)methyl]-4-piperidyl]-3-(cyclopropanecarbonylamino) pyrazole-4-carboxamide], in assay [1] (setting [4]), the pIC50 was 6.75. Further, the figures for the pKi in assay [2] (read-out: JAK1 Ki) and in assay [3] were 7.04 and 6.80, respectively.

In the case of `C=Cc1cc(F)c(CN2CCC(CC#N)(n3cc(C(N)=O)c(NC(=O)OC)n3)C(F)C2)cc1O` (stereo not drawn) [Example 285, methyl N-[4-carbamoyl-1-[4-(cyanomethyl)-3-fluoro-1-[(2-fluoro-5-hydroxy-4-vinyl-phenyl)methyl]-4-piperidyl]pyrazol-3-yl]carbamate], the pIC50 in assay [1] (setting [4]) is 7.66. Also, the pKi was 9.72 in assay [2] (read-out: JAK1 Ki) and 9.64 in assay [3].

As to `N#CCC1(n2cc(C(N)=O)c(NC(=O)C3CC3)n2)CCN(Cc2ccc(C3=CCCC3)cc2)CC1F` (stereo not drawn) [Example 261, 1-[4-(cyanomethyl)-1-[[4-(cyclopenten-1-yl)phenyl]methyl]-3-fluoro-4-piperidyl]-3-(cyclopropanecarbonylamino) pyrazole-4-carboxamide], in assay [1] (setting [4]), the pIC50 is 7.68. The negative-log Ki (pKi) is 9.25 in assay [2] (read-out: JAK1 Ki) and 9.09 in assay [3].

For `CCOC(=O)Nc1nn(C2(CC#N)CCN(Cc3ccc(-c4ccccc4)c(O)c3)CC2)cc1C(N)=O` [Example 187, ethyl N-[4-carbamoyl-1-[4-(cyanomethyl)-1-[(3-hydroxy-4-phenyl-phenyl)methyl]-4-piperidyl]pyrazol-3-yl]carbamate], the pIC50 in assay [1] (setting [4]) was 7.13. Besides, the pKi in assay [2] (read-out: JAK1 Ki) was 9.28; in assay [3], 8.51.

Turning to `N#CCC1(n2cc(C(N)=O)c(NC(=O)C3CC3)n2)CCC(Nc2ccc(C3=CCCC3)cc2)CC1` (stereo not drawn) [Example 275, 1-[1-(cyanomethyl)-4-[4-(cyclopenten-1-yl)anilino]cyclohexyl]-3-(cyclopropanecarbonylamino) pyrazole-4-carboxamide], in assay [1] (setting [4]), the pIC50 is 7.28. For the same compound, the pKi in assay [2] (read-out: JAK1 Ki) is 8.96; in assay [3], 8.09.

With `N#CCC1(n2cc(C(N)=O)c(NC(=O)C3CC3C#N)n2)CCN(CC2CCC(c3ccccc3)CC2)CC1F` (stereo not drawn) [Example 228, 3-[(2-cyanocyclopropanecarbonyl)amino]-1-[4-(cyanomethyl)-3-fluoro-1-[(4-phenylcyclohexyl)methyl]-4-piperidyl]pyrazole-4-carboxamide], the pIC50 in assay [1] (setting [5]) was 7.11. Moreover, the values for the pKi in assay [2] (read-out: JAK1 Ki) and in assay [3] were 8.82 and 8.11, respectively.
